Experimental data taken from BigSolDB 2.1.

Compound	solubility (mole fraction) (in n-octanol, 298.15 K)	solubility (mole fraction) (in n-octanol, 303.15 K)	solubility (mole fraction) (in n-octanol, 308.15 K)	solubility (mole fraction) (in n-octanol, 313.15 K)	solubility (mole fraction) (in water, 298.15 K)	solubility (mole fraction) (in water, 303.15 K)	solubility (mole fraction) (in water, 308.15 K)	solubility (mole fraction) (in water, 313.15 K)
Nc1ccc(S(=O)(=O)Nc2nccs2)cc1	9.49e-05	0.00013	0.000168	0.000206	3.25e-05	4.33e-05	5.92e-05	7.35e-05
Nc1ccc(S(=O)(=O)Nc2ncccn2)cc1	1.39e-05	1.79e-05	2.32e-05	3.09e-05	4.87e-06	5.98e-06	7.94e-06	1.09e-05
